Measured values from patent publication US9902725B2, “Heterocyclic derivatives as RORgamma modulators” (GENFIT, priority 2014, dated 2018).

target: T1, RORγt ligand-binding domain (RORγt-LBD) (Homo sapiens, UniProt P51449); test: Time-resolved FRET (TR-FRET) RORγt coactivator assay; assay type: biochemical; settings: GST-RORγ-LBD, biotinylated RIP140 peptide, coactivator displacement
T1 construct: 20 nM recombinantly expressed RORγ-LBD fused to GST
T1 sequence (P51449 269-508 limits assumed): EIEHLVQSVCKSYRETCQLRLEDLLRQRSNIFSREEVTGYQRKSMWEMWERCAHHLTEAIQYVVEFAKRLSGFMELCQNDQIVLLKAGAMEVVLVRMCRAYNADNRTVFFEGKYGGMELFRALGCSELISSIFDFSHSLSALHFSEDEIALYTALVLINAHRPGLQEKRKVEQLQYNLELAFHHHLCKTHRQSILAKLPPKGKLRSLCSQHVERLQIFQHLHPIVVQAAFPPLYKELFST
Text: Time-resolved FRET (TR-FRET) RORγt coactivator assay was used to identify RORγ modulator compounds with ligand-dependent coactivator displacement. The assay uses a d2-labeled anti-GST antibody, synthetic N-terminally biotinylated peptide which is derived from nuclear receptor coactivator protein RIP140, and a RORγt ligand-binding domain (RORγt-LBD) that is tagged with glutathione-S-transferase (GST). The influence of compounds on the RORγ-peptide interaction relies on the binding dependent energy transfer from a donor to an acceptor fluorophore attached to the binding partner of interest. […] For reduction of background from compound fluorescence, TR-FRET method makes use of generic fluorophore labels and time resolved detection.
The assays were done in a final volume of 20 μl in a 384 well plate in a CHAPS buffer (2 mM CHAPS; 1 mM DTT, 2 mM EDTA; 0.1% BSA), containing 20 nM recombinantly expressed RORγ-LBD fused to GST, 30 nM N-terminally biotinylated peptide, 1 nM streptavidin-terbium conjugate and 20 nM d2 labeled-anti-GST. Test compounds were diluted using 10 mM stock solution. The range of the final compound concentrations used in this test was from 0.3 nM to 30 μM (logarithmic scale). DMSO content of the samples was kept at 1%. The assay was equilibrated for 2 hours in the dark at room temperature in 384 well plates (Falcon). The signal was detected by an Ultra384 reader (TECAN). The results were visualized by plotting the ratio between the emitted light at 665 nm and 620 nm. A basal level of RORγ-peptide formation is observed in the absence of added compound. Compounds that promote coactivator displacement induce a concentration-dependent decrease in time-resolved fluorescent signal. Data were collected and analyzed using GraphPad Prism software (GraphPad Software V5.02, San Diego Calif. USA). IC50 in μM and Emax in % were reported for each compound.

Structure (SMILES)	IC50 [nM]
Cc1cc(F)ccc1C(NC(=O)Cc1ccc2[nH]cc(CCC(=O)OC(C)(C)C)c2c1)c1ccccc1 (centres unmarked) [Cpd. 45, tert-butyl 3-[5-({[(4-fluoro-2-methylphenyl)(phenyl)methyl]carbamoyl}methyl)-1H-indol-3-yl]propanoate]	10000 to 30000
COC(=O)Cc1c[nH]c2ccc(NC(=O)NC(c3ccccc3)c3ccccc3N3CCCCC3)cc12 (centres unmarked) [Cpd. 68, methyl 2-{5-[({phenyl[2-(piperidin-1-yl)phenyl]methyl}carbamoyl)amino]-1H-indol-3-yl}acetate]	1000 to 10000
CC(C)(C)OC(=O)CCc1c[nH]c2ccc(CC(=O)NC(c3ccccc3)c3ccc(F)cc3N3CCCC3)cc12 (centres unmarked) [Cpd. 92, tert-butyl 3-{5-[({[4-fluoro-2-(pyrrolidin-1-yl)phenyl](phenyl)methyl}carbamoyl)methyl]-1H-indol-3-yl}propanoate]	1000 to 10000
CC(C)(C)OC(=O)CCc1c[nH]c2ncc(NC(=O)NC(c3ccccc3)c3ccccc3N3CCCCC3)cc12 (centres unmarked) [Cpd. 94, tert-butyl 3-{5-[({phenyl[2-(piperidin-1-yl)phenyl]methyl}carbamoyl)amino]-1H-pyrrolo[2,3-b]pyridin-3-yl}propanoate]	1000 to 10000
Cc1ccc(C(NC(=O)Cc2ccc3[nH]cc(CC(=O)O)c3c2)c2ccccc2)c(N2CCOCC2)c1 (centres unmarked) [Cpd. 97, 2-{5-[({[4-methyl-2-(morpholin-4-yl)phenyl](phenyl)methyl}carbamoyl)methyl]-1H-indol-3-yl}acetic acid]	1000 to 10000
Cc1ccc(C(NC(=O)Cc2ccc3[nH]cc(CCC(=O)OC(C)(C)C)c3c2)c2ccc(C)s2)c(C)c1 (centres unmarked) [Cpd. 100, tert-butyl 3-[5-({[(2,4-dimethylphenyl)(5-methylthiophen-2-yl)methyl]carbamoyl}methyl)-1H-indol-3-yl]propanoate]	1000 to 10000
Cc1ccc(C(NC(=O)Cc2ccc3[nH]cc(CCC(=O)OC(C)(C)C)c3c2)c2ccccc2)c(N2CCN(C)CC2)c1 (centres unmarked) [Cpd. 102, tert-butyl 3-{5-[({[4-methyl-2-(4-methylpiperazin-1-yl)phenyl](phenyl)methyl}carbamoyl)methyl]-1H-indol-3-yl}propanoate]	1000 to 10000
CC(C)CC(NC(=O)Cc1ccc2[nH]cc(CCC(=O)OC(C)(C)C)c2c1)c1cccc2ccccc12 (centres unmarked) [Cpd. 104, tert-butyl 3-[5-({[3-methyl-1-(naphthalen-1-yl)butyl]carbamoyl}methyl)-1H-indol-3-yl]propanoate]	1000 to 10000
CC(C)(C)OC(=O)CCc1c[nH]c2ccc(CC(=O)NC(c3ccccc3)c3ccccc3-n3cccc3)cc12 (centres unmarked) [Cpd. 106, tert-butyl 3-{5-[({phenyl[2-(1H-pyrrol-1-yl)phenyl]methyl}carbamoyl)methyl]-1H-indol-3-yl}propanoate]	1000 to 10000
Cc1ccc(N2CCCCC2)c(C(NC(=O)Cc2ccc3[nH]cc(CCC(=O)OC(C)(C)C)c3c2)c2ccccc2)c1 (centres unmarked) [Cpd. 113, tert-butyl 3-{5-[({[5-methyl-2-(piperidin-1-yl)phenyl](phenyl)methyl}carbamoyl)methyl]-1H-indol-3-yl}propanoate]	1000 to 10000
CC(C)(C)OC(=O)CCc1c[nH]c2ccc(CC(=O)NC(c3ccccc3)c3cc(Br)ccc3N3CCCC3)cc12 (centres unmarked) [Cpd. 116, tert-butyl 3-{5-[({[5-bromo-2-(pyrrolidin-1-yl)phenyl](phenyl)methyl}carbamoyl)methyl]-1H-indol-3-yl}propanoate]	1000 to 10000
CC(C)(C)OC(=O)CCc1c[nH]c2ccc(CC(=O)NC(c3ccccc3)c3ccccc3N3CCCC(O)C3)cc12 (centres unmarked) [Cpd. 123, tert-butyl 3-{5-[({[2-(3-hydroxypiperidin-1-yl)phenyl](phenyl)methyl}carbamoyl)methyl]-1H-indol-3-yl}propanoate]	1000 to 10000

Other lines, results leading:

IC50 [nM]	Structure (SMILES)
1000 to 10000	CC(C)(C)OC(=O)CCc1c[nH]c2ccc(CC(=O)NC(c3ccccc3)c3ccccc3N3CCCCC3)cc12 (centres unmarked) [Cpd. 2, tert-butyl 3-{5-[({phenyl[2-(piperidin-1-yl)phenyl]methyl}carbamoyl)methyl]-1H-indol-3-yl}propanoate]
< 1000	Cc1ccc(C(NC(=O)Cc2ccc3[nH]cc(CCC(=O)O)c3c2)c2ccccc2)c(C)c1 (centres unmarked) [Cpd. 11, 3-[5-({[(2,4-dimethylphenyl)(phenyl)methyl]carbamoyl}methyl)-1H-indol-3-yl]propanoic acid]
< 1000	Cc1ccc(C)c(C(NC(=O)Cc2ccc3[nH]cc(CCC(=O)O)c3c2)c2ccccc2)c1 (centres unmarked) [Cpd. 13, 3-[5-({[(2,5-dimethylphenyl)(phenyl)methyl]carbamoyl}methyl)-1H-indol-3-yl]propanoic acid]
1000 to 10000	Cc1cc(Cl)ccc1C(NC(=O)Cc1ccc2[nH]cc(CCC(=O)OC(C)(C)C)c2c1)c1ccccc1 (centres unmarked) [Cpd. 34, tert-butyl 3-[5-({[(4-chloro-2-methylphenyl)(phenyl)methyl]carbamoyl}methyl)-1H-indol-3-yl]propanoate]
< 1000	COC(=O)Cc1c[nH]c2ccc(CC(=O)NC(c3ccccc3)c3ccccc3N3CCCCC3)cc12 (centres unmarked) [Cpd. 40, methyl 2-{5-[({phenyl[2-(piperidin-1-yl)phenyl]methyl}carbamoyl)methyl]-1H-indol-3-yl}acetate]
1000 to 10000	Cc1ccc(Cl)c(C(NC(=O)Cc2ccc3[nH]cc(CCC(=O)OC(C)(C)C)c3c2)c2ccccc2)c1 (centres unmarked) [Cpd. 41, tert-butyl 3-[5-({[(2-chloro-5-methylphenyl)(phenyl)methyl]carbamoyl}methyl)-1H-indol-3-yl]propanoate]
1000 to 10000	CC(C)(C)OC(=O)CCc1c[nH]c2ccc(CC(=O)NC(c3ccccc3)c3ccccc3N)cc12 (centres unmarked) [Cpd. 51, tert-butyl 3-[5-({[(2-aminophenyl)(phenyl)methyl]carbamoyl}methyl)-1H-indol-3-yl]propanoate]
1000 to 10000	CN(C)c1ccccc1C(NC(=O)Cc1ccc2[nH]cc(CCC(=O)OC(C)(C)C)c2c1)c1ccccc1 (centres unmarked) [Cpd. 53, tert-butyl 3-{5-[({[2-(dimethylamino)phenyl](phenyl)methyl}carbamoyl)methyl]-1H-indol-3-yl}propanoate]
1000 to 10000	CC(C)CC(NC(=O)Cc1ccc2[nH]cc(CCC(=O)OC(C)(C)C)c2c1)c1ccccc1N1CCOCC1 (centres unmarked) [Cpd. 57, tert-butyl 3-{5-[({3-methyl-1-[2-(morpholin-4-yl)phenyl]butyl}carbamoyl)methyl]-1H-indol-3-yl}propanoate]
< 1000	N#Cc1ccc(C(NC(=O)Cc2ccc3[nH]cc(CCC(=O)O)c3c2)c2ccccc2)c(N2CCCC2)c1 (centres unmarked) [Cpd. 60, 3-{5-[({[4-cyano-2-(pyrrolidin-1-yl)phenyl](phenyl)methyl}carbamoyl)methyl]-1H-indol-3-yl}propanoic acid]
1000 to 10000	CC(C)(C)OC(=O)CCc1c[nH]c2ccc(CC(=O)NC(c3ccccc3)c3cc(Cl)ccc3N3CCCCC3)cc12 (centres unmarked) [Cpd. 61, tert-butyl 3-{5-[({[5-chloro-2-(piperidin-1-yl)phenyl](phenyl)methyl}carbamoyl)methyl]-1H-indol-3-yl}propanoate]
< 1000	COC(=O)Cc1c[nH]c2ccc(CC(=O)NC(c3ccccc3)c3ccc(Br)cc3N3CCCC3)cc12 (centres unmarked) [Cpd. 66, methyl 2-{5-[({[4-bromo-2-(pyrrolidin-1-yl)phenyl](phenyl)methyl}carbamoyl)methyl]-1H-indol-3-yl}acetate]
< 1000	COC(=O)Cc1c[nH]c2ccc(CC(=O)NC(c3ccccc3)c3ccccc3N(C)C)cc12 (centres unmarked) [Cpd. 70, methyl 2-{5-[({[2-(dimethylamino)phenyl](phenyl)methyl}carbamoyl)methyl]-1H-indol-3-yl}acetate]
< 1000	COC(=O)Cc1c[nH]c2ccc(CC(=O)NC(c3ccccc3)c3ccccc3N3CCCC3)cc12 (centres unmarked) [Cpd. 72, methyl 2-{5-[({phenyl[2-(pyrrolidin-1-yl)phenyl]methyl}carbamoyl)methyl]-1H-indol-3-yl}acetate]
< 1000	COC(=O)Cc1c[nH]c2ccc(CC(=O)NC(c3ccccc3)c3ccccc3N3CCCCCC3)cc12 (centres unmarked) [Cpd. 74, methyl 2-{5-[({[2-(azepan-1-yl)phenyl](phenyl)methyl}carbamoyl)methyl]-1H-indol-3-yl}acetate]
< 1000	Cc1ccc(C(NC(=O)Cc2ccc3[nH]cc(CCC(=O)OC(C)(C)C)c3c2)c2ccccc2)c(N2CCOCC2)c1 (centres unmarked) [Cpd. 80, tert-butyl 3-{5-[({[4-methyl-2-(morpholin-4-yl)phenyl](phenyl)methyl}carbamoyl)methyl]-1H-indol-3-yl}propanoate]
< 1000	CN(C)Cc1ccccc1C(NC(=O)Cc1ccc2[nH]cc(CCC(=O)O)c2c1)c1ccccc1 (centres unmarked) [Cpd. 122, 3-(5-{[({2-[(dimethylamino)methyl]phenyl}(phenyl)methyl)carbamoyl]methyl}-1H-indol-3-yl)propanoic acid]
